Experimental data as given in US6087334A, “Anti-diabetic peptides” (Amylin Pharmaceuticals, Inc., priority 1998, dated 2000).
Where a SMILES comes first, the peptide text is derived from it. Bridges are numbered along the chain shown (N, C = ends).

system: gastric emptying in conscious rats; conditions: rat, in vivo
Text: Peptide compounds of the present invention may be evaluated for amylin agonist activity using the methods of measuring the rate of gastric emptying disclosed in, for example, Young et al., Diabetologia, 38(6):642-648 (1995). In a phenol red method, which is described in Example D below, conscious rats receive by gavage an a caloric gel containing methyl cellulose and a phenol red indicator. Twenty minutes after gavage, animals are anesthetized using halothane, the stomach exposed and clamped at the pyloric and lower esophageal sphincters, removed and opened into an alkaline solution. Stomach content may be derived from the intensity of the phenol red in the alkaline solution, measured by absorbance at a wavelength of 560 nm. In a tritiated glucose method, conscious rats are gavaged with tritiated glucose in water. The rats are gently restrained by the tail, the tip of which is anesthetized using lidocaine. Tritium in the plasma separated from tail blood is collected at various timepoints and detected in a beta counter. Test compounds are normally administered about one minute before gavage.
Phenol Red Gastric Emptying Assay:
Gastric emptying was measured using a modification (Plourde et al., Life Sci. 53:857-862 (1993)) of the original method of Scarpignato et al. (Arch. Int. Pharmacodyn. Ther. 246:286-295 (1980)). Conscious rats received by gavage. 1.5 mL of an a caloric gel containing 1.5% methyl cellulose (M-0262, Sigma Chemical Co., St. Louis, Mo.) and 0.05% phenol red indicator. Twenty minutes after gavage, rats were anesthetized using 5% halothane, the stomach exposed and clamped at the pyloric and lower esophageal sphincters using artery forceps, removed and opened into an alkaline solution which was made up to a fixed volume. Stomach content was derived from the intensity of the phenol red in the alkaline solution, measured by absorbance at a wavelength of 560 nm. […] In other experiments, particulate gastric contents were centrifuged to clear the solution for absorbance measurements. Where the diluted gastric contents remained turbid, the spectroscopic absorbance due to phenol red was derived as the difference between that present in alkaline versus acidified dilutent.
In separate experiments on 7 rats, the stomach and small intestine were both excised and opened into an alkaline solution. […] Percent gastric emptying contents remaining=(absorbance at 20 min)/(absorbance at 0 min). For those compounds for which ED50 data is presented, dose response curves for gastric emptying were fitted to a 4-parameter logistic model using a least-squares iterative routine (ALLFIT, v2.7, NIH, Bethesda, Md.) to derive ED50 s. Because ED50 is log-normally distributed, it is expressed ± standard error of the logarithm. Pairwise comparisons were performed using one-way analysis of variance and the Student-Newman-Keuls multiple comparisons test (Instat v2.0, GraphPad Software, San Diego, Calif.) using P<0.05 as the level of significance.
As a reference point for dose response studies, rat amylin (Bachem, Torrance, Calif.) dissolved in 0.15M saline, was administered as a 0.1 mL subcutaneous bolus in doses of 0, 0.01, 0.1, 1, 10 or 100 μg 5 minutes before gavage in Harlan Sprague Dawley (non-diabetic) rats fasted 20 hours and diabetic BB rats fasted 6 hours.

| SMILES | Example D ED50 [µg] |
| --- | --- |
| CC(C)C[C@H](NC(=O)[C@H](CCCNC(=N)N)NC(=O)[C@H](C)NC(=O)[C@@H](NC(=O)[C@H](C)NC(=O)[C@@H]1CSSC[C@H](NC(=O)[C@@H](N)CCCCN)C(=O)N[C@@H](CC(N)=O)C(=O)N[C@@H]([C@@H](C)O)C(=O)N[C@@H](C)C(=O)N[C@@H]([C@@H](C)O)C(=O)N1)[C@@H](C)O)C(=O)N[C@@H](C)C(=O)N[C@@H](CC(N)=O)C(=O)N[C@@H](Cc1ccccc1)C(=O)N[C@@H](CC(C)C)C(=O)N[C@H](C(=O)N[C@@H](CCCNC(=N)N)C(=O)N[C@@H](CO)C(=O)N[C@@H](CO)C(=O)NCC(=O)N[C@@H](Cc1ccc(O)cc1)C(N)=O)C(C)C [Example 5] (H-KCNTATCATARLANFLVRSSGY-NH2; disulfide 2-7) | 9.3 |
| CC(C)C[C@H](NC(=O)[C@H](CCCNC(=N)N)NC(=O)[C@H](C)NC(=O)[C@@H](NC(=O)[C@H](C)NC(=O)[C@H](C)NC(=O)[C@@H](NC(=O)[C@H](CO)NC(=O)[C@@H](N)CC(C)C)[C@@H](C)O)[C@@H](C)O)C(=O)N[C@@H](C)C(=O)N[C@@H](C)C(=O)N[C@@H](Cc1ccccc1)C(=O)N[C@@H](CC(C)C)C(=O)N[C@@H](C)C(=O)N[C@@H](CCCNC(=N)N)C(=O)N[C@@H](CO)C(N)=O [Example 6] (H-LSTAATARLAAFLARS-NH2) | 1.34 |
| CC(C)C[C@H](NC(=O)[C@H](CCCNC(=N)N)NC(=O)[C@H](C)NC(=O)[C@@H](NC(=O)[C@H](C)NC(=O)[C@@H]1CSSC[C@H](NC(=O)[C@@H](N)CCCCN)C(=O)N[C@@H](CC(N)=O)C(=O)N[C@@H]([C@@H](C)O)C(=O)N[C@@H](C)C(=O)N[C@@H]([C@@H](C)O)C(=O)N1)[C@@H](C)O)C(=O)N[C@@H](C)C(=O)N[C@@H](C)C(=O)N[C@@H](Cc1ccccc1)C(=O)N[C@@H](CC(C)C)C(=O)N[C@@H](C)C(=O)N[C@@H](CCCNC(=N)N)C(=O)N[C@@H](CO)C(=O)N[C@@H](CO)C(=O)NCC(=O)N[C@@H](Cc1ccc(O)cc1)C(N)=O [Example 1] (H-KCNTATCATARLAAFLARSSGY-NH2; disulfide 2-7) | 0.26 |
| CC(C)C[C@H](NC(=O)[C@H](CCCNC(=N)N)NC(=O)[C@H](C)NC(=O)[C@@H](NC(=O)[C@H](C)NC(=O)[C@@H]1CSSC[C@H](N)C(=O)N[C@@H](CC(N)=O)C(=O)N[C@@H]([C@@H](C)O)C(=O)N[C@@H](C)C(=O)N[C@@H]([C@@H](C)O)C(=O)N1)[C@@H](C)O)C(=O)N[C@@H](C)C(=O)N[C@@H](C)C(=O)N[C@@H](Cc1ccccc1)C(=O)N[C@@H](CC(C)C)C(=O)N[C@@H](C)C(=O)N[C@@H](CCCNC(=N)N)C(=O)N[C@@H](CO)C(N)=O [Example 3] (H-CNTATCATARLAAFLARS-NH2; disulfide 1-6) | 0.45 |
